Assay results published in patent US20160251341A1, “SUBSTITUTED TRIAZOLE COMPOUNDS AS SERINE PROTEASE INHIBITORS” (Verseon Corporation, priority 2015, published 2016).
Where a name gives a salt, the structure may show the parent alone.

biological target: T1, Human thrombin (Homo sapiens, UniProt P00734); assay: Thrombin protease inhibition assay (chromogenic substrate S-2238); assay type: biochemical; details: 3 nM human thrombin, 125 μM S-2238, 10 min pre-incubation, RT
T1 construct: purchased Haematologic Technologies Inc
Procedure: The thrombin activity reported herein (e.g., Table A) was obtained as follows. Human thrombin was obtained from Haematologic Technologies Inc. The chromogenic substrate S-2238 was obtained from DiaPharma. Thrombin was assayed in buffer containing 0.05 M Tris (pH 7.4), 0.015 M NaCl and 0.01% PEG-8000. The final concentration of enzyme used was 3 nM thrombin. The final concentration of substrate used was 125 μM S-2238 for thrombin. All assays were performed in 96-well microtiter plates at room temperature (RT). The enzyme and inhibitor were pre-incubated for 10 minutes then substrate was added and read at 405 nm in a SpectraMax Plus Spectrophotometer (Molecular Devices). Inhibitor IC50 values were determined by adding test compound as ten point, three-fold serial dilutions in buffer solution, as known in the art. The plate was read at 10 minutes after substrate addition. The IC50 was calculated by plotting the percent (%) inhibition against compound concentration and fitting the data to a constrained four parameter sigmoidal curve, as known in the art.

Row | Compound | IC50 [nM]
1 | COc1ccccc1C(=O)n1nc(C2CN(S(=O)(=O)N3CCCC3)C2)nc1NCc1ccc(Cl)s1 [Entry 49, N-[(5-chlorothiophen-2-yl)methyl]-1-(2-methoxybenzoyl)-3-[1-(pyrrolidine-1-sulfonyl)azetidin-3-yl]-1H-1,2,4-triazol-5-amine] | ≤ 100
2 | O=C(c1cccc2c1OCCO2)n1nc(C2CCCO2)nc1NCc1ccc(Cl)s1 (stereo not drawn) [Entry 33, N-[(5-chlorothiophen-2-yl)methyl]-1-(2,3-dihydro-1,4-benzodioxine-5-carbonyl)-3-(oxolan-2-yl)-1H-1,2,4-triazol-5-amine] | ≤ 100
3 | O=C(c1ccoc1)n1nc(C2CCOCC2)nc1NCc1ccc(Cl)s1 [Entry 51, N-[(5-chlorothiophen-2-yl)methyl]-1-(furan-3-carbonyl)-3-(oxan-4-yl)-1H-1,2,4-triazol-5-amine] | ≤ 100
4 | O=C(c1cccc2c1OCCO2)n1nc(C2CCOC2)nc1NCc1ccc(Cl)s1 (stereo not drawn) [Entry 34, N-[(5-chlorothiophen-2-yl)methyl]-1-(2,3-dihydro-1,4-benzodioxine-5-carbonyl)-3-(oxolan-3-yl)-1H-1,2,4-triazol-5-amine] | ≤ 100
5 | COc1ccccc1C(=O)n1nc(C2CN(S(=O)(=O)N3CCCCC3)C2)nc1NCc1ccc(Cl)s1 [Entry 45, N-[(5-chlorothiophen-2-yl)methyl]-1-(2-methoxybenzoyl)-3-[1-(piperidine-1-sulfonyl)azetidin-3-yl]-1H-1,2,4-triazol-5-amine] | ≤ 100
6 | O=C(C1CCCCC1)n1nc(C2CNC2)nc1NCc1ccc(Cl)s1 [Entry 22, 3-(azetidin-3-yl)-N-[(5-chlorothiophen-2-yl)methyl]-1-cyclohexanecarbonyl-1H-1,2,4-triazol-5-amine; trifluoroacetic acid] | 100 to 1000
7 | O=C(c1ccccc1)n1nc(C2CCNCC2)nc1NCc1ccc(Cl)s1 [Entry 15, 1-benzoyl-N-[(5-chlorothiophen-2-yl)methyl]-3-(piperidin-4-yl)-1H-1,2,4-triazol-5-amine hydrochloride] | ≤ 100
8 | COc1ccccc1C(=O)n1nc(C2CCN(S(=O)(=O)c3ccccc3)CC2)nc1NCc1ccc(Cl)s1 [Entry 28, 3-[1-(benzenesulfonyl)piperidin-4-yl]-N-[(5-chlorothiophen-2-yl)methyl]-1-(2-methoxybenzoyl)-1H-1,2,4-triazol-5-amine] | ≤ 100
9 | O=C(c1cccc2c1OCCO2)n1nc(C2CCOCC2)nc1NCc1ccc(Cl)s1 [Entry 32, N-[(5-chlorothiophen-2-yl)methyl]-1-(2,3-dihydro-1,4-benzodioxine-5-carbonyl)-3-(oxan-4-yl)-1H-1,2,4-triazol-5-amine] | ≤ 100

Next, values leading:

Row | IC50 [nM] | Compound
10 | ≥ 100000 | CC(C)(C)OC(=O)N1CCCC1c1n[nH]c(N)n1 (stereo not drawn) [Entry 67, tert-butyl 2-(5-amino-1H-1,2,4-triazol-3-yl)pyrrolidine-1-carboxylate]
11 | 1000 to 10000 | COC1CCCCC1c1n[nH]c(NCc2ccc(Cl)s2)n1 (stereo not drawn) [Entry 56, N-[(5-chlorothiophen-2-yl)methyl]-3-(2-methoxycyclohexyl)-1H-1,2,4-triazol-5-amine]
12 | ≥ 100000 | Clc1ccc(CNc2nc(C3CCOC3)n[nH]2)s1 (stereo not drawn) [Entry 62, N-[(5-chlorothiophen-2-yl)methyl]-3-(oxolan-3-yl)-1H-1,2,4-triazol-5-amine]
13 | ≥ 100000 | CC(C)(C)OC(=O)N1CC(c2n[nH]c(N)n2)C1 [Entry 70, tert-butyl 3-(5-amino-1H-1,2,4-triazol-3-yl)azetidine-1-carboxylate]
14 | ≤ 100 | O=C(c1ccsc1)n1nc(C2CCOCC2)nc1NCc1ccc(Cl)s1 [Entry 57, N-[(5-chlorothiophen-2-yl)methyl]-3-(oxan-4-yl)-1-(thiophene-3-carbonyl)-1H-1,2,4-triazol-5-amine]
15 | ≤ 100 | COc1ccccc1C(=O)n1nc(C2CCN(C(=O)OC(C)(C)C)CC2)nc1NCc1ccccc1 [Entry 76, tert-butyl 4-[5-(benzylamino)-1-(2-methoxybenzoyl)-1H-1,2,4-triazol-3-yl]piperidine-1-carboxylate]
